According to patent US10434079B2, “Compositions and methods for the treatment of fatty acid metabolism disorders” (The Children's Hospital of Philadelphia, priority 2013, dated 2019):

Assays:
VLCAD [1] = target: T1, VLCAD (Mus musculus, UniProt P50544); test: Quantification of S-nitrosylated VLCAD by organomercury capture in liver of treated mice; assay type: in vivo; parameters: Liver homogenate (final concentration of 0.03 μg/μl) or cell lysate; from tissue; host or cells: mouse liver (C57BL/6J wild-type, ob/ob, eNOS-/-); conditions: ob/ob mouse liver, from 25% S-nitrosylated VLCAD
T1 sequence (P50544 42-656): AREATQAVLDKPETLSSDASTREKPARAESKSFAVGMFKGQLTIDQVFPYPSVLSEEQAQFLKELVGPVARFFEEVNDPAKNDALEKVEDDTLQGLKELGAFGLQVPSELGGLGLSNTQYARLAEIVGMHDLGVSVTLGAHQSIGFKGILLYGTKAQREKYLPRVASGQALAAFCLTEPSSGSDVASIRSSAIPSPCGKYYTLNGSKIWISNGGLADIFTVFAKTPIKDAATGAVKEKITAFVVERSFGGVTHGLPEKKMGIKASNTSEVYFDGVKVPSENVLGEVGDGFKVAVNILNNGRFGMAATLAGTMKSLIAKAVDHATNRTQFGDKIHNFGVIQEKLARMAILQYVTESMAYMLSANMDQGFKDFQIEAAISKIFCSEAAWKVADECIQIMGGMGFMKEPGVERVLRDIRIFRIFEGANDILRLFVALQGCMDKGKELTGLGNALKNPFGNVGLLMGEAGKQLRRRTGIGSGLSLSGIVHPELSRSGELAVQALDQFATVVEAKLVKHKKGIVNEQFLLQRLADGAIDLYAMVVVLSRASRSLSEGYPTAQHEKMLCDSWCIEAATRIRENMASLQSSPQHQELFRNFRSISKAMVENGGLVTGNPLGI
Description: A detailed experimental procedure for the preparation and activation of columns, homogenate preparation for reaction with organic mercury resin, has been described (Doulias et al. (2010) Proc. Natl. Acad. Sci., 107:16958-16963). Three biological replicates from each organ were analyzed. […] The false identification rate was <6% for brain and <3% for all other organs. For washes, stringent conditions were selected due to the differences in lipid content among the six organs. Columns were initially washed with 50 bed volumes of 50 mM tris-HCl (pH 7.4) containing 300 mM NaCl and 0.5% SDS, followed by 50 bed volumes of the same buffer containing 0.05% SDS. Columns were washed with 50 bed volumes of 50 mM tris-HCl containing 300 mM NaCl (pH 7.4), 1% Triton X-100, and 1 M urea, followed by 50 bed volumes of the same buffer containing 0.1% Triton X-100 and 0.1 M urea. Finally, columns were washed with 200 bed volumes of water before proteins were eluted with 10 ml of 50 mM β-mercaptoethanol in water. Samples were concentrated and analyzed by gel-LC (liquid chromatography)-MS/MS analysis. For on-column digestion after the final wash with water, the columns were washed with 10 bed volumes of 0.1 M ammonium bicarbonate. Bound proteins were subjected to digestion by the addition of Trypsin Gold (1 μg/ml) (Promega) in one bed volume of 0.1 M […] in the dark for 16 hours at room temperature. […]

VLCAD [2] = target: T1, VLCAD
VLCAD [3] = target: T1, VLCAD; test: VLCAD activity assay (ferricenium) in liver homogenates from injected ob/ob mice
[4] = test system: β-oxidation of fatty acids; test: Measurement of β-oxidation: 3H-labeled palmitoyl-CoA oxidation in liver homogenates of treated ob/ob mice; assay type: in vivo, mouse; conditions: GSNO-injected ob/ob mice (i.p.)
Description: (1957) J. Biol. Chem., 226:497-509). The aqueous phase was collected, and proteins were precipitated by the addition of 10% TCA followed by centrifugation at 8000 g for 10 minutes at room temperature. Remaining radioactive palmitoyl-CoA was eliminated by strong anion exchange chromatography with AG 1-X8 formate resin (Life Science). The effluent containing the ^3H2O was collected and used for scintillation counting. Each experiment was coupled with a background measurement, a sample containing no protein. The background count number was subtracted from each measurement corresponding to analysis samples. Leptin-deficient mice develop liver steatosis spontaneously under normal chow diet starting at 4 to 5 weeks of life that is characterized by a diminished rate of palmitate oxidation and accumulation of fat droplets in the form of triglycerides within the hepatocytes (Brix et al. (2002) Mol. Genet. Metab., 75:219-226; de Oliveira et al. (2008) J. Am. Coll. Nutr., 27:299-305). […] This significant reduction in the rate of palmitoyl-CoA oxidation indicated a deficiency in mitochondrial β-oxidation of fatty acids. […]

- increase of catalytic efficiency (kcat/KM) of S-nitrosylated VLCAD vs unmodified protein (VLCAD [1]): 29 fold
- VLCAD specific activity of untreated eNOS-/- relative to eNOS-/- liver tissue treated with GSNO (VLCAD [2]; 5 μM GSNO 30 minutes prior to the assay, 0.25 mM palmitoyl-CoA): significantly lower
- KM for VLCAD enzymatic activity, treated vs untreated homogenate (VLCAD [2]; eNOS-/- liver homogenates treated ex vivo with GSNO): increased five-fold
- S-nitrosylation of VLCAD at Cys238 ex vivo (VLCAD [2]; eNOS-/- liver homogenates treated with GSNO): readily modified
- acyl dehydrogenase-mediated oxidation of palmitoyl-CoA (VLCAD [3]; GSNO-treated ob/ob mouse liver): increase
- apparent KM in PBS-injected ob/ob homogenates relative to wild-type and GSNO-injected ob/ob mice (VLCAD [3]; liver homogenates): more than fivefold higher
SMILES: N[C@@H](CCC(=O)N[C@@H](CSN=O)C(=O)NCC(=O)O)C(=O)O [GSNO, S-nitrosoglutathione]
- palmitoyl-CoA oxidation rate compared with PBS-injected ob/ob mice [4]: significantly increased rate
